Measured values reported in article PMC10675785, “(L)-Monomethyl Tyrosine (Mmt): New Synthetic Strategy via Bulky ‘Forced-Traceless’ Regioselective Pd-Catalyzed C(sp^2)–H Activation” (Pharmaceuticals, 2023).

Target: human NOP receptor (Homo sapiens, UniProt P41146)
Test: Calcium mobilization assay in CHO cells stably coexpressing the NOP receptor and the Gαqi5 chimeric G protein
Conditions: CHOhNOP + Gαqi5 cells; Fluo-4 AM, FlexStation II, 37 °C; four-parameter logistic fit; mean of 5 or at least 6 experiments in duplicate
Procedure: Drugs and reagents: The reagents used were purchased from Sigma-Aldrich (St. Louis, MO, USA) and Thermo Fisher Scientific (Waltham, MA, USA). […] Concentrated solutions of ligands were made in distilled water (1 mM) and kept at −20 °C until use. Successive dilutions of ligands were made in Hank’s Balanced Salt Solution (HBSS) and HEPES buffer (containing 0.005% Bovine Serum Albumine (BSA)).
Cell Culture: Chinese Hamster Ovary (CHO) cells stably coexpressing the NOP opioid receptors and the Gαqi5 protein were used. […]
Calcium Mobilization Assay: Calcium mobilization studies were performed using the automated fluorometer microplate reader FlexStation II (Molecular Devices, Sunnyvale, CA, USA), which was employed to detect changes in fluorescence intensity. […] After placing both plates (cell culture and compound plate) into the fluorometric imaging plate reader FlexStation II, fluorescence changes were measured. […] Maximum change in fluorescence, expressed as percent over the baseline fluorescence, was used to determine agonist response.
Data analysis and terminology: All data were analyzed using Graph Pad Prism 6.0 (La Jolla, CA, USA). […] Data were expressed as mean ± sem of 5 experiments performed in duplicate. Agonist effects were expressed as the maximum change in percent over the baseline fluorescence. Baseline fluorescence was measured in wells treated with vehicles. […]

Sequence of human NOP receptor (P41146 whole entry): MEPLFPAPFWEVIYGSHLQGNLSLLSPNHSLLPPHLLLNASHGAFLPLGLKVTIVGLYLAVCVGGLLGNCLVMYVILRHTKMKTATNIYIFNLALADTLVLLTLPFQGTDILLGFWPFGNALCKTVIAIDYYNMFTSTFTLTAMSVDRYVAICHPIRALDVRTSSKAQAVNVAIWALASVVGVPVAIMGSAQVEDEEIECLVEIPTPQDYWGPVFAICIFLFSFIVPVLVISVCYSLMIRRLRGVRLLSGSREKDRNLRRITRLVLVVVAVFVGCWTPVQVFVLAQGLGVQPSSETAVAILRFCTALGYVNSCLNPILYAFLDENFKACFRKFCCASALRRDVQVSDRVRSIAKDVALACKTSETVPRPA

Substance: [Dmt^1]N/OFQ(1-13)-NH2
- pEC50 (CL95%): 8.35 (7.94–8.77)
